Results published in patent US20260183295A1, “METHODS AND COMPOSITIONS FOR TREATING CANCER” (Onconova Therapeutics, Inc., priority 2022, published 2026).

Assays:
Type in all cases: cell-based
MDA-MB-231 cells = assay: Annexin V/PI staining with or without bafilomycin A1, 2 days; conditions: 5 μM
Description: The effect was increased with bafilomycin A1 cotreatment.

NUAK1 = target: T1, NUAK1 (Homo sapiens, UniProt O60285); assay: NUAK1 NanoBret
T1 sequence (O60285 1-661): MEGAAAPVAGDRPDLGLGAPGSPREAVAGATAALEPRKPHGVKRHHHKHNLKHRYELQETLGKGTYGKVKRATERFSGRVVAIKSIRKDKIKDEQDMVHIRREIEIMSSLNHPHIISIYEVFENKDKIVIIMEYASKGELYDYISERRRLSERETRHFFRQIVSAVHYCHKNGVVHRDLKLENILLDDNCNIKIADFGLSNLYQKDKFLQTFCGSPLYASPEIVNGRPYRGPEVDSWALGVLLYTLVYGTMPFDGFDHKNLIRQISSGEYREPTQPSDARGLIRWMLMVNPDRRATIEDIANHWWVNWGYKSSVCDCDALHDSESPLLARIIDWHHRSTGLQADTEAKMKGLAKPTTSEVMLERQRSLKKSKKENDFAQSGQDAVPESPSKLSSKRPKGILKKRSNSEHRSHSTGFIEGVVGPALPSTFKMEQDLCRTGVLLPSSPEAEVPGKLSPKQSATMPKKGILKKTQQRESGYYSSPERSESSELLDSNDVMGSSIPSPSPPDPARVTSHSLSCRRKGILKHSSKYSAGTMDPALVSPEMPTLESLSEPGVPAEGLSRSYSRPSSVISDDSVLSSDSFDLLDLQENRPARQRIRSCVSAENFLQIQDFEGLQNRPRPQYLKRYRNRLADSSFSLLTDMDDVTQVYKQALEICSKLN

BUB1 in MDA-MB-468 = assay: BUB1 levels after 72 hours treatment; conditions: MDA-MB-468 (TNBC)
Experimental: (§1) The effects on the different treatment conditions on BUB 1 levels and PARP cleavage were also assessed. For both MNA-MB-231 cells, Compound 1 alone or with HCQ or SBI decreased BUB1 levels and cleaved PARP with […] decreases in cell viability observed for all treatments except Compound 1+SBI in MMA-MB-231 cells. The effects of Compound 1 with or without autophagy inhibitors was less pronounced in HCC-1937 cells.

BUB1 in MDA-MB-231 = assay: BUB1 levels after 72 hours treatment; conditions: MDA-MB-231 (TNBC)
Experimental: as §1

HNRNPC = target: T2, HNRNPC (Homo sapiens, UniProt P07910); assay: CETSA-MS, MDA-MB-231 intact cells; conditions: 2 μM and 20 μM
T2 construct: 148 targets unique to Compound 1 in MDA-MB-231 intact cells; endogenous in cells; host or cells: MDA-MB-231
How it was run: (§2)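 Heat gradient applied to compound-incubated intact MDA-MB-231 cells; flash-frozen lysates sonicated and cleared, soluble proteins acetone-washed, then digested and labeled. Protein melting shifts were derived from mass spectrometry quantification.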

DNAJC13 = target: T3, DNAJC13 (Homo sapiens, UniProt O75165); assay: CETSA-MS, MDA-MB-231 intact cells; conditions: 2 μM and 20 μM
T3 construct: 148 targets unique to Compound 1 in MDA-MB-231 intact cells; endogenous in cells; host or cells: MDA-MB-231
How it was run: as §2

LOXL2 = target: T4, LOXL2 (Homo sapiens, UniProt Q9Y4K0); assay: CETSA-MS, MDA-MB-231 intact cells; conditions: 2 μM and 20 μM
T4 construct: endogenous in cells; host or cells: MDA-MB-231
How it was run: as §2

STX5 = target: T5, STX5 (Homo sapiens, UniProt Q13190); assay: CETSA-MS, MDA-MB-231 intact cells; conditions: 2 μM and 20 μM
T5 construct: endogenous in cells; host or cells: MDA-MB-231
How it was run: as §2

TTK = target: T6, TTK (Homo sapiens, UniProt P33981); assay: CETSA-MS, MDA-MB-231 intact cells; conditions: 2 μM and 20 μM
T6 construct: endogenous in cells; host or cells: MDA-MB-231
How it was run: as §2

HNRNPA2B1 = target: T7, HNRNPA2B1 (Homo sapiens, UniProt P22626); assay: CETSA-MS, MDA-MB-231 intact cells; conditions: 2 μM and 20 μM
T7 construct: 148 targets unique to Compound 1 in MDA-MB-231 intact cells; endogenous in cells; host or cells: MDA-MB-231
How it was run: as §2

HNRNPL = target: T8, HNRNPL (Homo sapiens, UniProt P14866); assay: CETSA-MS, MDA-MB-231 intact cells; conditions: 2 μM and 20 μM
T8 construct: endogenous in cells; host or cells: MDA-MB-231
How it was run: as §2

TAF15 = target: T9, TAF15 (Homo sapiens, UniProt Q92804); assay: CETSA-MS, MDA-MB-231 intact cells; conditions: 2 μM and 20 μM
T9 construct: endogenous in cells; host or cells: MDA-MB-231
How it was run: as §2

TIMP2 = target: T10, TIMP2 (Homo sapiens, UniProt P16035); assay: CETSA-MS, MDA-MB-231 intact cells; conditions: 2 μM and 20 μM
T10 construct: endogenous in cells; host or cells: MDA-MB-231
How it was run: as §2

MAMDC2 = target: T11, MAMDC2 (Homo sapiens, UniProt Q7Z304); assay: CETSA-MS, MDA-MB-231 intact cells; conditions: 2 μM and 20 μM
T11 construct: endogenous in cells; host or cells: MDA-MB-231
How it was run: as §2

SNX6 = target: T12, SNX6 (Homo sapiens, UniProt Q9UNH7); assay: CETSA-MS, MDA-MB-231 intact cells; conditions: 2 μM and 20 μM
T12 construct: endogenous in cells; host or cells: MDA-MB-231
How it was run: as §2

IGFBP7 = target: T13, IGFBP7 (Homo sapiens, UniProt Q16270); assay: CETSA-MS, MDA-MB-231 intact cells; conditions: 2 μM and 20 μM
T13 construct: endogenous in cells; host or cells: MDA-MB-231
How it was run: as §2

LMAN2 = target: T14, LMAN2 (Homo sapiens, UniProt Q12907); assay: CETSA-MS, MDA-MB-231 intact cells; conditions: 2 μM and 20 μM
T14 construct: endogenous in cells; host or cells: MDA-MB-231
How it was run: as §2

HNRNPA3 = target: T15, HNRNPA3 (Homo sapiens, UniProt P51991); assay: CETSA-MS, MDA-MB-231 intact cells; conditions: 2 μM and 20 μM
T15 construct: 148 targets unique to Compound 1 in MDA-MB-231 intact cells; endogenous in cells; host or cells: MDA-MB-231
How it was run: as §2

CERS2 = target: T16, CERS2 (Homo sapiens, UniProt Q96G23); assay: CETSA-MS, MDA-MB-231 intact cells; conditions: 2 μM and 20 μM
T16 construct: endogenous in cells; host or cells: MDA-MB-231
How it was run: as §2

T7 sequence (P22626 whole entry): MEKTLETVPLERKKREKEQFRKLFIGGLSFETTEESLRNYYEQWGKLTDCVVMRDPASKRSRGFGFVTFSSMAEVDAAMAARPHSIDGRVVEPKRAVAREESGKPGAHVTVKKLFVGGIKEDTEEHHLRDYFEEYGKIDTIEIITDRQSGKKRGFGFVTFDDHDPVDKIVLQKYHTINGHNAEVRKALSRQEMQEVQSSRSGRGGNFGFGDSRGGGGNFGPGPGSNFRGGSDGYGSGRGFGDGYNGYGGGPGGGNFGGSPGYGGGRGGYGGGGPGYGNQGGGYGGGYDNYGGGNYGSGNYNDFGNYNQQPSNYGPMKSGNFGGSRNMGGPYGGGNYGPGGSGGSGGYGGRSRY
T2 sequence (P07910 whole entry): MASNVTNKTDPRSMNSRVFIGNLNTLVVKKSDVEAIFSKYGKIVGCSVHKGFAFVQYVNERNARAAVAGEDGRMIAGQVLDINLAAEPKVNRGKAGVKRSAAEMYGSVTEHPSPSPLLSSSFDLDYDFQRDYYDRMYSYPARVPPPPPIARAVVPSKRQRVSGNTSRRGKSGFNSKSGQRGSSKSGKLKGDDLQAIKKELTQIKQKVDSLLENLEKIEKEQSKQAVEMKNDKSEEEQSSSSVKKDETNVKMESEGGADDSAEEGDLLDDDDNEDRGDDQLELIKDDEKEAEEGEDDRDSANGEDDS
T14 sequence (Q12907 45-356): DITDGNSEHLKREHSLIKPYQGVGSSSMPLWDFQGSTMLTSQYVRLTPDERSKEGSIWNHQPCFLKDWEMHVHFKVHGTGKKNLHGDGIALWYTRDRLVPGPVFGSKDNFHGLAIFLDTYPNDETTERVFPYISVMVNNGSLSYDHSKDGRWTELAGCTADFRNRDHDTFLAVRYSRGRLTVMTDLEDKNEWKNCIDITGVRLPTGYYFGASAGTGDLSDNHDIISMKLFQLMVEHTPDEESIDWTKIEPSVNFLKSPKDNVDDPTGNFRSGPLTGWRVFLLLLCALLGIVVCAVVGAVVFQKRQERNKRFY
T3 sequence (O75165 whole entry): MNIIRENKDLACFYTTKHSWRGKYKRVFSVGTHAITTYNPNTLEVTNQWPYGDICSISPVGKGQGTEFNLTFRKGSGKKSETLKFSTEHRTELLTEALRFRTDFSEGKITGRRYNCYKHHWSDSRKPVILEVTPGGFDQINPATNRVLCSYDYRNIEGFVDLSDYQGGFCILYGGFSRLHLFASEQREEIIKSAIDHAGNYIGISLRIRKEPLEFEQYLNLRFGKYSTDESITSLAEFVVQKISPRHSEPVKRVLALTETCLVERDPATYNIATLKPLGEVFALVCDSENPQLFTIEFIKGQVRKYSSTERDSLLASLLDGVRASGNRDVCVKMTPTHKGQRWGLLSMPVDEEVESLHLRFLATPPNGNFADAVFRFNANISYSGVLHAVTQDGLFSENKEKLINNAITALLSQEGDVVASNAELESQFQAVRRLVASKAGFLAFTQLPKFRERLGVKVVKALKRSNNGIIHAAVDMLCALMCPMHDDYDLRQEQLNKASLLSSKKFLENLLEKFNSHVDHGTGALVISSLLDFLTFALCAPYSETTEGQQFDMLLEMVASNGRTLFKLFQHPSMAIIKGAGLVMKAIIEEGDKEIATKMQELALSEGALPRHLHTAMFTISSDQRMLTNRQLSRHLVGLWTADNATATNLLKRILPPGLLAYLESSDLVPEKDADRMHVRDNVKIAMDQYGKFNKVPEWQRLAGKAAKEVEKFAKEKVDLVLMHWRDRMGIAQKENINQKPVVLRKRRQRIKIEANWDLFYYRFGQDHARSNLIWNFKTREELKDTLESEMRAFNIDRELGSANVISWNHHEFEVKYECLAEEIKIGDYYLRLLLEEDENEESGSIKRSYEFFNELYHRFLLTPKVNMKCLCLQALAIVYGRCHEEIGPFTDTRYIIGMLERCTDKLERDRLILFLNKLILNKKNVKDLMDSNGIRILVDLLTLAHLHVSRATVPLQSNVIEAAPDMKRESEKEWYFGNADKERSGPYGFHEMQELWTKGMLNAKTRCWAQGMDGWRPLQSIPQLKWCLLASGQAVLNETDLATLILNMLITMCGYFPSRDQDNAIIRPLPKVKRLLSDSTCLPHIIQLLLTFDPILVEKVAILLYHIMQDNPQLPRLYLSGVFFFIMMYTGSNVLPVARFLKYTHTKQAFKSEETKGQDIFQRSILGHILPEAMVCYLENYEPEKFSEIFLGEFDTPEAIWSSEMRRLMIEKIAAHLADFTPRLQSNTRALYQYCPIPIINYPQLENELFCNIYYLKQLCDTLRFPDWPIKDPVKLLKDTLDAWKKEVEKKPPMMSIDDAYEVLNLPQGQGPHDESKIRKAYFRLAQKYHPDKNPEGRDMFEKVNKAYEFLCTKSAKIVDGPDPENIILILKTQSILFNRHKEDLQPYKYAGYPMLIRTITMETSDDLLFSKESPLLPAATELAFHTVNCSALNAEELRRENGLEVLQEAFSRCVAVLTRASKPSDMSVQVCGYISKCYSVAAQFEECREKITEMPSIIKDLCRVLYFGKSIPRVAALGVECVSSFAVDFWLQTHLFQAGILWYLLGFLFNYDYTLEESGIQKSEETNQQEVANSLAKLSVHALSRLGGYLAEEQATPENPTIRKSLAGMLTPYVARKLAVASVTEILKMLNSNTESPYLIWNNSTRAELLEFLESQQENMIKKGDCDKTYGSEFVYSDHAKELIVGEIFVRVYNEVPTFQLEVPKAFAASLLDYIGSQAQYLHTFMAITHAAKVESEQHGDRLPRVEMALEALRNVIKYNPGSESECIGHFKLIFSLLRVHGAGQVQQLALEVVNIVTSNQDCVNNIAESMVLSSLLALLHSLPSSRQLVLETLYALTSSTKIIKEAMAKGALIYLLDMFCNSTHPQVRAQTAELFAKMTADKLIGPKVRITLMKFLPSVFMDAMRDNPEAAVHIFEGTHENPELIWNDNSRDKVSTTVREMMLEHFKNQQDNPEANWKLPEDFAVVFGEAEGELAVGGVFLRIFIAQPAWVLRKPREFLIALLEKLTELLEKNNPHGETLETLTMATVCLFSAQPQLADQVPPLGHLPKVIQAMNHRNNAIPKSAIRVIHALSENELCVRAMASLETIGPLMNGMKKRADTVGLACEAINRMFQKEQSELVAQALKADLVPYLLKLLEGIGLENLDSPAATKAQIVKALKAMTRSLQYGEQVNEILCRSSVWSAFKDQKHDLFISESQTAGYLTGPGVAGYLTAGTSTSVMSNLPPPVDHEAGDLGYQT
T9 sequence (Q92804 whole entry): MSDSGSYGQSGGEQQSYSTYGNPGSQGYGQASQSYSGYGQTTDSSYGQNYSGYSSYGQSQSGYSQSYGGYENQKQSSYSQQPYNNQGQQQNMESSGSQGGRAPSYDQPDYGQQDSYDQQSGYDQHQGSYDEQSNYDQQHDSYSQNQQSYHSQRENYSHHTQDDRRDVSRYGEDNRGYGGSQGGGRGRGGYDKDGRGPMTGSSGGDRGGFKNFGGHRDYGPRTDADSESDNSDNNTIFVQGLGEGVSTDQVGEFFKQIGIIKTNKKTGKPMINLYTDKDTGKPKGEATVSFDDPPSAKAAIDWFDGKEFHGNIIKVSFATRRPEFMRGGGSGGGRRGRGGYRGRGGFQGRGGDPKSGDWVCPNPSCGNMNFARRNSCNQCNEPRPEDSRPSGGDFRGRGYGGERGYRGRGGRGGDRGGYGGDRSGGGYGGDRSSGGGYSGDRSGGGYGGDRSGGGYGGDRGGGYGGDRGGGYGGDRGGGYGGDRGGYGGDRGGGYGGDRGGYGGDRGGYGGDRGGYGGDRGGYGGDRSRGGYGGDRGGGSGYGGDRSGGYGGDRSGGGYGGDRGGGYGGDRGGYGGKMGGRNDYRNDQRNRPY
T11 sequence (Q7Z304 19-686): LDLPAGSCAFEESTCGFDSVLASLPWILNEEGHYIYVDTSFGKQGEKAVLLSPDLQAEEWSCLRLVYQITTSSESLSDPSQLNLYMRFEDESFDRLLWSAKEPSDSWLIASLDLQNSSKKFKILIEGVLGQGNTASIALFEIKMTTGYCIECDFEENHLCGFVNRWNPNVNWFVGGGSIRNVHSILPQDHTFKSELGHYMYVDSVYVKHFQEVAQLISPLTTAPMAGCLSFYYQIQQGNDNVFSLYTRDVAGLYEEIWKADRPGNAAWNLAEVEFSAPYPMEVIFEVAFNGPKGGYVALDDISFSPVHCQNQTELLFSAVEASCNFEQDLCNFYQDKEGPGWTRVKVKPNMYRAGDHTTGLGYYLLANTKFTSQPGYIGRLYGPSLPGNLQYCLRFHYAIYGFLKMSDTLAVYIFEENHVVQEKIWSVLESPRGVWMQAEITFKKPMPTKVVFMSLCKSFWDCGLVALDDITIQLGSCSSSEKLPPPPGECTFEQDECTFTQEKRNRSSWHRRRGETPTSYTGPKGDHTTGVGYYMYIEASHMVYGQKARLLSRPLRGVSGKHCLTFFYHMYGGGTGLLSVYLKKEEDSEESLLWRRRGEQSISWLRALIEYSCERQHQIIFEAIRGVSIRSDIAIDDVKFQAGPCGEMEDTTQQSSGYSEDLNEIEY
T12 sequence (Q9UNH7 whole entry): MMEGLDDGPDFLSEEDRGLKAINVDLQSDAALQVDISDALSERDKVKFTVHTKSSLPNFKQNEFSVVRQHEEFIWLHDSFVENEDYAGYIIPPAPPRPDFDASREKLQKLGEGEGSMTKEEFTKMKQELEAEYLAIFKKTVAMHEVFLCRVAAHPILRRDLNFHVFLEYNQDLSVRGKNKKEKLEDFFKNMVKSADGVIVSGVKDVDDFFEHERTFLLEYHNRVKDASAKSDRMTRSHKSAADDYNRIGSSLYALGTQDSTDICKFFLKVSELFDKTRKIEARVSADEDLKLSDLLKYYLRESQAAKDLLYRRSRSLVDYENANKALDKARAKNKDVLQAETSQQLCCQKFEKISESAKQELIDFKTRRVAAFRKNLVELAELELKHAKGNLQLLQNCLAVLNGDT

CN1CCN(c2ccc(Nc3ncc4cc(C#N)c(=O)n(C5CCCC5)c4n3)cc2)CC1 [Compound 1, 8-cyclopentyl-2-((4-(4-methylpiperazin-1-yl)phenyl)amino)-7-oxo-7,8-dihydropyrido[2,3-d]pyrimidine-6-carbonitrile]
induced cell death: cell death (Annexin V/PI), compound alone (MDA-MB-231 cells)
Stabilization: Group (CETSA-MS thermal shift) (HNRNPC) | Group (CETSA-MS thermal shift) (DNAJC13) | Group (CETSA-MS thermal shift) (LOXL2) | Group (CETSA-MS thermal shift) (STX5) | Group (CETSA-MS thermal shift) (TTK) | Group (CETSA-MS thermal shift) (HNRNPA2B1) | Group (CETSA-MS thermal shift) (HNRNPL) | Group (CETSA-MS thermal shift) (TAF15) | Group (CETSA-MS thermal shift) (TIMP2) | Group (CETSA-MS thermal shift) (MAMDC2) | Group (CETSA-MS thermal shift) (IGFBP7) | Group (CETSA-MS thermal shift) (LMAN2) | Group (CETSA-MS thermal shift) (HNRNPA3) | Group (CETSA-MS thermal shift) (CERS2)
↓: BUB1 (BUB1 in MDA-MB-468) | BUB1 (BUB1 in MDA-MB-231)
42 nM: IC50 (NUAK1)
increased: effect of bafilomycin A1 cotreatment on cell death (Annexin V/PI) (MDA-MB-231 cells)
Destabilization: Group (CETSA-MS thermal shift) (SNX6)
